Results on four compounds are retold here after patent US20100087788A1, “Anti-infective alcohol catheter solution with chlorhexidine treated catheter” (priority 2006, published 2010).

The test system of data set [1] is E. faecalis, S. aureus, E. coli. As to the kind of experiment: Change of chlorhexidine MBC at subinhibitory ethanol (summary of Table 2). The format is cell-based. The following applies: ethanol at 80% of the ethanol MIC. As for the experimental part:
(§1) Determinations of Minimum Inhibitory Concentration (MIC) and Minimum Bacteriocidal Concentration (MBC) were performed using standard microbiological techniques. Chlorhexidine diacetate was tested at the following μg/mL concentrations: 256, 128, 64, 32, 16, 8, 4, 2, 1, 0.5, 0.25, and 0.125. Ethanol was tested at the following percent (%) concentrations: 50, 40, 30, 25, 20, 15, 12, 10, 7, and 5. Dilutions were prepared in Cationic Adjusted Mueller Hinton Broth (CAMHB). All tests were performed in microtiter plates with a total test volume of 100 μL, including diluted antimicrobial agent and inoculum. Concentrations of antimicrobial agents were prepared at 2× concentration, and 50 μL was added to each well of a microtiter plate, to which 50 μL of inoculum of the test organism was added to give the target test concentration.
(§2) Inoculum was prepared by transfer of isolated colonies from agar plates to 10 mL of trypticase soy broth (TSB), and incubation at 37° C. for 4 hrs. Cells were subsequently centrifuged, and resuspended twice in phosphate buffered saline. The population of this bacterial suspension was determined by reading optical density at 670 nm. Final concentrations of inoculum were adjusted to a range of approximately 5×10^4 cfu/mL, using CAMHB as a diluent. Initial concentrations were verified using the Miles and Misra drop count method. […]

A further data set deals with S. aureus. Description: MBC of chlorhexidine diacetate alone and at 80% of the ethanol MIC. The format is cell-based. An excerpt:
(§3) The synergy of ethanol and chlorhexidine is illustrated in Table 2 by measurement of the minimum bacteriocidal concentration (MBC) of chlorhexidine at ethanol concentrations that are subinhibitory (80% of the ethanol minimum inhibitory concentration).

The test system of the next data set is E. coli. The data set is described as above. The format is cell-based.
Text: as §3

A short description of data set [2]: Release kinetics of chlorhexidine from loaded catheter segments. The format is physicochemical. The following applies: catheter segments 200 micrograms/cm. As to the method: 5Fr Catheter segments were bulk impregnated with chlorhexidine base (CHX) by soaking in an ethyl acetate solution of CHX and then evaporating the solvent. The chlorhexidine mass per unit length was determined by dissolving the catheter […] extracting the chlorhexidine. The measure mass of chlorhexidine was approximately 200 micrograms per cm. 5Fr catheter segments were similarly impregnated with chlorhexidine diacetate to a level of 200 micrograms/cm by soaking in an ethyl acetate-methanol solution followed by evaporation. These segments were used in Zone of inhibition testing and release kinetics testing.
Release kinetics measurements were performed of chlorhexidine base (CHX) and chlorhexidine diacetate (CHA) loaded catheter segments (200 micrograms/cm) in water and in 25% ethanol lock. One cm long catheter segments were placed in 10 ml of 25% ethanol lock solution. At each sampling point the eluting solution was removed and replaced with fresh solution. The amount of chlorhexidine released was measured by UV absorbance readings at 263 nm on the eluting lock solution relative to a reference curve of chlorhexidine standards prepared to known concentrations in 25% ethanol lock. Cumulative % release was calculated from the measured amount released at each time point and the quantity of chlorhexidine loaded into the catheter segments.

For the next data set, the system named is E. faecalis. Description: MBC of chlorhexidine diacetate alone and at 80% of the ethanol MIC. The format is cell-based. As to the method:
as §1, §2

A short description of data set [3]: Solubility of chlorhexidine salts in ethanol (100%) and water. The format is physicochemical. The following applies: for Ethanol Solubility: ethanol (100%).
For data set [4], the system named is S. epidermidis ATCC 35983. The following applies: ethanol. As to the method: as §1
(§4) Inoculum was prepared by transfer of isolated colonies from agar plates to 10 mL of trypticase soy broth (TSB), and incubation at 37° C. for 4 hrs. Cells were subsequently centrifuged, and resuspended twice in phosphate buffered saline. The population of this bacterial suspension was determined by reading optical density at 670 nm. Final concentrations of inoculum were adjusted to a range of approximately 5×10^4 cfu/mL, using CAMHB as a diluent. Initial concentrations were verified using the Miles and Misra drop count method. To each test well of a microtiter plate, 50 μl of inoculum was added along with 50 μl of the 2× concentration of the antimicrobial agent being tested. Incubation was at 37° C. for 16 to 20 hours.
(§5) To determine MBC values, 50 μl was removed from each well showing inhibition of growth (MIC and greater). Solutions from these inhibitory concentrations of antimicrobial agent were diluted in CAMHB to concentrations where they would no longer inhibit the growth of the test organism. Recovery counts were obtained by plating aliquots of the diluted material onto TSA plate containing 5% sheep's blood, and incubating 24 hours at 37° C.

Another data set relates to S. aureus ATCC 29213. Particulars: ethanol. As to the method: as §1, §4, §5
A further data set relates to C. albicans ATCC 10231. Particulars: ethanol. As for the experimental part:
as §1, §4, §5

For another data set, the system named is K. pneumoniae ATCC 10031. Particulars: ethanol. As for the experimental part:
as §1, §4, §5

For a further data set, the system named is P. aeruginosa ATCC 27853. Particulars: ethanol. As for the experimental part:
as §1, §4, §5

Another data set relates to E. coli ATCC 25922. Particulars: ethanol. As for the experimental part: as §1, §4, §5
The next data set has as its system E. cloacae ATCC 13047. Particulars: ethanol. As for the experimental part: as §1, §4, §5
Another data set deals with E. faecalis ATCC 51299. The following applies: ethanol. As to the method:
as §1, §4, §5

The subject of data set [5] is most commonly encountered infectious pathogens. The following applies: conclusion from Table 1. As to the method:
as §1, §4, §5

The subject of the next data set is most microorganisms. Particulars: Sissons et al. 1996; cited from earlier work.

For the compound `CC(=O)O.CC(=O)O.NC(=N\CCCCCC/N=C(N)/N=C(\N)Nc1ccc(Cl)cc1)/N=C(\N)Nc1ccc(Cl)cc1` [CHA, chlorhexidine diacetate], in data set [1], the “drop of chlorhexidine MBC in the presence of subinhibitory ethanol concentrations” value is “approximately 50%”. Besides, the “MBC for CHA @ 80% MIC ETOH” value in the data set on S. aureus (ethanol 9.6% (80% of MIC)) is 1 µg/mL; in the data set with E. coli (ethanol 8% (80% of MIC)) it was 2 µg/mL; in the data set with E. faecalis (ethanol 5.6% (80% of MIC)) it was 4 µg/mL. Besides, the “MBC for CHA” value in the data set with S. aureus (no ethanol) is 1 to 2 µg/mL; in the data set on E. coli (no ethanol), 4 µg/mL; with E. faecalis (no ethanol), 8 µg/mL. Moreover, in data set [2], the “release of chlorhexidine from catheter into 25% ethanol lock solution, compared with chlorhexidine base (FIG. 2)” value is recorded as “releases faster”.

Turning to `CCCCC(=O)O.CCCCC(=O)O.N=C(NCCCCCCNC(=N)NC(=N)Nc1ccc(Cl)cc1)NC(=N)Nc1ccc(Cl)cc1` [Valerate], in data set [3], the “Ethanol Solubility” value was determined as 20 mg/mL and the “Water Solubility” value stood at 1.2 mg/mL.

Regarding `CCO` [ethanol], the MBC was 10-12% in [4]; 25% with S. aureus ATCC 29213; 10% with C. albicans ATCC 10231; 25% with K. pneumoniae ATCC 10031; 12% in the data set on P. aeruginosa ATCC 27853; 15% with E. coli ATCC 25922. Further, the MBC against E. cloacae ATCC 13047 and against E. faecalis ATCC 51299 was 10% throughout. The MIC in data set [4] (CAMHB, 37° C., 16 to 20 hours) was determined as 12%; in the data set on S. aureus ATCC 29213 (CAMHB, 37° C., 16 to 20 hours) it was 12%; in the data set on C. albicans ATCC 10231 (CAMHB, 37° C., 16 to 20 hours), 7%; against K. pneumoniae ATCC 10031 (CAMHB, 37° C., 16 to 20 hours), 10%; against P. aeruginosa ATCC 27853 (CAMHB, 37° C., 16 to 20 hours), 7%; with E. coli ATCC 25922 (CAMHB, 37° C., 16 to 20 hours) it was 10%. The MIC is recorded as 7% in the data set on E. cloacae ATCC 13047 (CAMHB, 37° C., 16 to 20 hours) and 7% against E. faecalis ATCC 51299 (CAMHB, 37° C., 16 to 20 hours). In addition, in data set [5], the “ethanol concentration at which the solution will not inhibit microbial growth” value is listed as “below 7%”. Moreover, the “ethanol lock concentration cidal towards most commonly encountered infectious pathogens” value in [5] is “above 25%”. Further, in the data set with most microorganisms, the “concentration that inhibits the growth of most microorganisms” value is recorded as 10%. In addition, in the data set with most microorganisms, the “concentrations generally considered bactericidal” value is recorded as no less than 40%.

As for Laurate, in data set [3], the “Ethanol Solubility” value amounted to 200 mg/mL and the “Water Solubility” value was 0.01 mg/mL.
